Measured values as given in patent publication US8999970B2, “Administration of an anti-obesity compound to individuals with renal impairment” (Arena Pharmaceuticals, Inc., priority 2010, dated 2015).
Values joined by “and” are separate entries in the source; they are usually repeats but may differ in a detail not shown here. Equal values may be shown once.

Assays:
[1] = Modeled steady state exposures following lorcaserin 10 mg BID (simulations and noncompartmental analysis from QD data); settings: 10 mg BID Simulation, Steady State
Description: To better assess the potential implications of M1 and M5 levels in patients, steady state exposures (i.e. the state of equilibrium obtained at the end of a certain number of dosings) following lorcaserin 10 mg twice daily (BID) dosing were modeled using simulations and noncompartmental analysis based on data from pharmacokinetic studies with once daily (QD) dosing.
To better assess the potential implications of M1 levels in subjects with renal impairment, steady state M1 exposure following lorcaserin 10 mg BID administration was modeled using simulations and noncompartmental analysis based upon data from pharmacokinetic studies with once daily (QD) dosing. This modeling is discussed below in Example 5.
To better assess the potential implications of M1 and M5 levels, steady state exposures following lorcaserin 10 mg BID dosing were modeled using simulations and noncompartmental analysis based upon data from pharmacokinetic studies with once daily (QD) dosing.

[2] = test system: panel of receptors, ion channels and transporters; experiment: Pharmacological activity of metabolites at a panel of receptors, ion channels and transporters
[3] = Preclinical toxicology: M1 and M5 pharmacokinetics after oral administration of lorcaserin, 52 wk, mice
[4] = Preclinical toxicology: M1 and M5 pharmacokinetics after oral administration of lorcaserin, 52 wk, rats
[5] = Toxicity studies in mice (determination of NOAEL); format: in vivo, mouse
Description: In the mouse, seizures occurred at single doses of 100 and 300 mg/kg lorcaserin, and death followed single doses of 1000 and 2000 mg/kg. In repeat dose studies in mice, mortality occurred at
doses ≧200 mg/kg. A dose of 250 mg/kg/day produced exposure multiples of 25 and 27 times (males and females) the exposure achieved in humans at a dose of 10 mg BID. At this dose, decreased red blood cell mass, increased reticulocytosis, increased liver weight, centrilobular hepatocellular hypertrophy, increased extramedullary hematopoeisis, and thymic necrosis occurred. The NOAEL in mice was 50 mg/kg/day, which produced exposure multiples of 7.6 and 2.3 (males and females) times the exposure in humans at 10 mg BID.

[6] = lorcaserin 25 mg/kg/day oral, F
[7] = lorcaserin 25 mg/kg/day oral, M
[8] = lorcaserin 50 mg/kg/day oral, F
[9] = lorcaserin 50 mg/kg/day oral, M
[10] = lorcaserin 10 mg/kg/day oral, F
[11] = lorcaserin 10 mg/kg/day oral, M
[12] = lorcaserin 30 mg/kg/day oral, F
[13] = lorcaserin 30 mg/kg/day oral, M
[14] = lorcaserin 100 mg/kg/day oral, F
[15] = lorcaserin 100 mg/kg/day oral, M

## C[C@H]1CN(C(=O)O[C@@H]2O[C@H](C(=O)O)[C@@H](O)[C@H](O)[C@H]2O)CCc2ccc(Cl)cc21 [Compound M5, N-carbamoyl glucuronide of lorcaserin]
[1]; ESRD
  AUC24 hr: 20100 ng·h/mL
  Cmax: 936 ng/mL
  t1/2: 22.9 h
[1]; Mild
  AUC24 hr: 1090 ng·h/mL
  Cmax: 78.1 ng/mL
  t1/2: 5.41 h
[1]; Moderate
  AUC24 hr: 2150 ng·h/mL
  Cmax: 141 ng/mL
  t1/2: 9.83 h
[1]; Normal
  AUC24 hr: 765 ng·h/mL
  Cmax: 77.3 ng/mL
  t1/2: 6.11 h
[1]; Severe
  AUC24 hr: 4260 ng·h/mL
  Cmax: 223 ng/mL
  t1/2: 11.0 h
[2]
  Activity at serotonin receptors or at a panel of more than 60 GPCRs, transporters and ion channels: neither metabolite is active
  Pharmacological activity at all receptors, transporters and ion channels tested to date: pharmacologically inactive
[3]; lorcaserin 5 mg/kg/day oral, F
  AUC0-inf: 201 ng·h/mL
  AUClast: 184 ng·h/mL
  Cmax: 100 ng/mL
  tmax: 0.5 h
[3]; lorcaserin 5 mg/kg/day oral, M
  AUC0-inf: 178 ng·h/mL
  AUClast: 134 ng·h/mL
  Cmax: 98.3 ng/mL
  tmax: 0.5 h
[3]; [6]
  AUClast: 1210 ng·h/mL
  Cmax: 431 ng/mL
  tmax: 0.5 h
[3]; [7]
  AUClast: 1840 ng·h/mL
  Cmax: 590 ng/mL
  tmax: 0.5 h
[3]; [8]
  AUC0-inf: 3260 ng·h/mL
  AUClast: 3230 ng·h/mL
  Cmax: 824 ng/mL
  tmax: 0.5 h
[3]; [9]
  AUC0-inf: 3470 ng·h/mL
  AUClast: 3420 ng·h/mL
  Cmax: 1000 ng/mL
  tmax: 0.5 h
[4]; [10]
  AUC0-inf: 349 ng·h/mL
  AUClast: 273 ng·h/mL
  Cmax: 53.8 ng/mL
  tmax: 0.5 h
[4]; [11]
  AUC0-inf: 602 ng·h/mL
  AUClast: 550 ng·h/mL
  Cmax: 178 ng/mL
  tmax: 1.0 h
[4]; [12]
  AUC0-inf: 1960 ng·h/mL
  AUClast: 1620 ng·h/mL
  Cmax: 337 ng/mL
  tmax: 1.0 h
[4]; [13]
  AUC0-inf: 3100 ng·h/mL
  AUClast: 3070 ng·h/mL
  Cmax: 559 ng/mL
  tmax: 0.5 h
[4]; [14]
  AUC0-inf: 12800 ng·h/mL
  AUClast: 11100 ng·h/mL
  Cmax: 1200 ng/mL
  tmax: 2.0 h
[4]; [15]
  AUC0-inf: 16500 ng·h/mL
  AUClast: 14900 ng·h/mL
  Cmax: 2030 ng/mL
  tmax: 0.5 h

## C[C@H]1CNCCc2ccc(Cl)cc21 [Lorcaserin, (R)-8-chloro-1-methyl-2,3,4,5-tetrahydro-1H-3-benzazepine]
[1]; ESRD
  AUC24 hr: 1860 ng·h/mL
  Cmax: 87.6 ng/mL
  t1/2: 24.8 h
[1]; Mild
  AUC24 hr: 1270 ng·h/mL
  Cmax: 64.1 ng/mL
  t1/2: 12.0 h
[1]; Moderate
  AUC24 hr: 935 ng·h/mL
  Cmax: 49.5 ng/mL
  t1/2: 11.5 h
[1]; Normal
  AUC24 hr: 942 ng·h/mL
  Cmax: 55.8 ng/mL
  t1/2: 8.28 h
[1]; Severe
  AUC24 hr: 835 ng·h/mL
  Cmax: 40.9 ng/mL
  t1/2: 12.8 h
[5]; both sexes, mouse, in vivo, mice
  NOAEL: 50 mg/kg/day
[5]; mice 50 mg/kg/day (NOAEL), females
  Exposure multiple of human exposure at 10 mg BID: 2.3 times
[5]; mice 50 mg/kg/day (NOAEL), males
  Exposure multiple of human exposure at 10 mg BID: 7.6 times
[5]; mice 250 mg/kg/day, females
  Exposure multiple of human exposure at 10 mg BID: 27 times
[5]; mice 250 mg/kg/day, males
  Exposure multiple of human exposure at 10 mg BID: 25 times
[5]; mice, repeat dose studies
  Doses at which mortality occurred: ≥ 200 mg/kg
[5]; mouse
  Single doses followed by death: 1000 mg/kg and 2000 mg/kg
